16 compounds from patent US8299065B2, “Antibacterial condensed thiazoles” (Biota Europe Ltd., priority 2007, dated 2012) can be followed below.

Converted amounts (≈) assume the structure as drawn.

In this assay the test system is Enterococcus faecalis ATCC 29212. Kind of assay: MIC testing against Enterococcus faecalis ATCC 29212. The class given is cell-based. Particulars: ATCC29212, read-out: MICs against Enterococcus faecalis, Activity. The protocol: Minimum Inhibitory Concentration (MIC) Testing Compounds of this invention were tested for antimicrobial activity by susceptibility testing in liquid or on solid media. MICs for compounds against each strain were determined by the broth microdilution or agar dilution method according to the guidelines of the Clinical Laboratories and Standards Institute, formerly the National Committee for Clinical Laboratory Standards (Clinical Laboratories and Standards Institute. Methods for Dilution Antimicrobial Susceptibility Tests for Bacteria That Grow Aerobically; Approved Standard—Seventh Edition. Document M7-A7. CLSI, Wayne, Pa., 2006; Clinical Laboratories and Standards Institute. Methods for Antimicrobial Susceptibility Testing of Anaerobic Bacteria; Approved Standard—Sixth Edition. Document M11-A6. CLSI, Wayne, Pa., 2004).
Regarding `CCNC(=O)Nc1nc2cc(-c3ccn(CCN(C)C)c(=O)c3)c(F)cc2s1` [Example 63, 1-(5-(1-(2-(dimethylamino)ethyl)-2-oxo-1,2-dihydropyridin-4-yl)-6-fluorobenzo[d]thiazol-2-yl)-3-ethylurea], the MIC lay within 2 to 16 µg/mL (≈ 4.96 to 39.7 µM). With `CCNC(=O)Nc1nc2cc(-c3cc[nH]c(=O)c3)ccc2s1` [Example 29, 1-ethyl-3-(5-(2-oxo-1,2-dihydropyridin-4-yl)benzo[d]thiazol-2-yl)urea], the MIC was in the range of 2 to 16 µg/mL (≈ 6.36 to 50.9 µM). For the compound `CCNC(=O)Nc1nc2cc(-c3cncc(O)c3)c(F)cc2s1` [Example 59, 1-ethyl-3-(6-fluoro-5-(5-hydroxypyridin-3-yl)benzo[d]thiazol-2-yl)urea], the MIC was 0.25 to 1 µg/mL (≈ 0.752 to 3.01 µM). Regarding `CCNC(=O)Nc1nc2cc(-c3cnc(N4CCC(C(=O)OC)CC4)nc3)c(F)cc2s1` [Example 43, methyl 1-(5-(2-(3-ethylureido)-6-fluorobenzo[d]thiazol-5-yl)pyrimidin-2-yl)piperidine-4-carboxylate], the MIC fell in the range of 0.25 to 1 µg/mL (≈ 0.545 to 2.18 µM).

On to `CCNC(=O)Nc1nc2cc(-c3cccnc3)c(OC)cc2s1` [Example 71, 1-ethyl-3-(6-methoxy-5-(pyridin-3-yl)benzo[d]thiazol-2-yl)urea], for which the MIC lay within 0.25 to 1 µg/mL (≈ 0.761 to 3.05 µM).

In the case of `CCNC(=O)Nc1nc2cc(-c3cnc(-n4ccnc4)nc3)ccc2s1` [Example 28, 1-(5-(2-(1H-imidazol-1-yl)pyrimidin-5-yl)benzo[d]thiazol-2-yl)-3-ethylurea], the MIC lay within 2 to 16 µg/mL (≈ 5.47 to 43.8 µM). `CCNC(=O)Nc1nc2cc(-c3ccn(CCN4CCOCC4)c(=O)c3)c(F)cc2s1` [Example 62, 1-ethyl-3-(6-fluoro-5-(1-(2-morpholinoethyl)-2-oxo-1,2-dihydropyridin-4-yl)benzo[d]thiazol-2-yl)urea]: the MIC was 0.25 to 1 µg/mL (≈ 0.561 to 2.24 µM). With `CCNC(=O)Nc1nc2cc(-c3cnc(N4CCNCC4)nc3)c(F)cc2s1.Cl` [Example 42, 1-ethyl-3-(6-fluoro-5-(2-(piperazin-1-yl)pyrimidin-5-yl)benzo[d]thiazol-2-yl)urea hydrochloride salt], the MIC lay in the range of 2 to 16 µg/mL. As to `CCNC(=O)Nc1nc2cc(-c3cc(C)n(CC4CCCN4C(=O)OC(C)(C)C)c(=O)c3)c(F)cc2s1` (stereo not shown) [Example 53, tert-butyl 2-((4-(2-(3-ethylureido)-6-fluorobenzo[d]thiazol-5-yl)-6-methyl-2-oxopyridin-1(2H)-yl)methyl)pyrrolidine-1-carboxylate], the MIC was 2 to 16 µg/mL (≈ 3.78 to 30.2 µM). With `CCNC(=O)Nc1nc2cc(-c3cnc(O)s3)ccc2s1` [Example 23, 1-ethyl-3-(5-(2-hydroxythiazol-5-yl)benzo[d]thiazol-2-yl)urea], the MIC fell in the range of 2 to 16 µg/mL (≈ 6.24 to 49.9 µM). For `CCNC(=O)Nc1nc2cc(-c3cnc(N4CCN(C)CC4)nc3)c(F)cc2s1` [Example 57, 1-ethyl-3-(6-fluoro-5-(2-(4-methylpiperazin-1-yl)pyrimidin-5-yl)benzo[d]thiazol-2-yl)urea], the MIC lay within 2 to 16 µg/mL (≈ 4.81 to 38.5 µM). Take `CCNC(=O)Nc1nc2cc(-c3cnc4c(c3)OCCN4C)ccc2s1` [Example 19, 1-ethyl-3-(5-(4-methyl-3,4-dihydro-2H-pyrido[3,2-b][1,4]oxazin-7-yl)benzo[d]thiazol-2-yl)urea]: the MIC lay within 0.25 to 1 µg/mL (≈ 0.677 to 2.71 µM).

`CCNC(=O)Nc1nc2cc(-c3cc[nH]n3)ccc2s1` [Example 17, 1-(5-(1H-pyrazol-3-yl)benzo[d]thiazol-2-yl)-3-ethylurea]: the MIC lay in the range of 2 to 16 µg/mL (≈ 6.96 to 55.7 µM). Take `CCNC(=O)Nc1nc2cc(-c3cnc(N4CCCC(C(=O)OC)C4)nc3)c(F)cc2s1` (stereo not shown) [Example 45, methyl 1-(5-(2-(3-ethylureido)-6-fluorobenzo[d]thiazol-5-yl)pyrimidin-2-yl)piperidine-3-carboxylate]: the MIC was 0.25 to 1 µg/mL (≈ 0.545 to 2.18 µM). The result for `CCNC(=O)Nc1nc2cc(-c3cn[nH]c3)ccc2s1` [Example 21, 1-(5-(1H-pyrazol-4-yl)benzo[d]thiazol-2-yl)-3-ethylurea] reads 2 to 16 µg/mL (≈ 6.96 to 55.7 µM). Consider `CCNC(=O)Nc1nc2cc(-c3ccc(CO)nc3)c(F)cc2s1` [Example 65, 1-ethyl-3-(6-fluoro-5-(6-(hydroxymethyl)pyridin-3-yl)benzo[d]thiazol-2-yl)urea], for which the MIC was in the range of 0.25 to 1 µg/mL (≈ 0.722 to 2.89 µM).
